# Legend:
# [1] = test system: Eschericia coli (E. Coli) strain ATCC25922; test: standard microdilution assay, minimum inhibitory concentration (MIC); assay type: cell-based; details: Escherichia coli
# Method in brief: (§1)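 Compounds were scored +/− against a 16 µg/mL MIC cutoff, using CLSI-based microdilution with QC reference strains. The organisms were S. aureus 11540 and E. coli ATCC25922.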
# [2] = test system: Staphylococcus aureus (S. aureus) 11540 strain; test: as above; assay type: cell-based
# Method in brief: as §1
Compound,"MIC ([1]; Table 2, strain ATCC25922) [µg/mL]","MIC ([2]; Table 2, 11540 strain) [µg/mL]","MIC ([1]; ATCC25922, Table 2a) [µg/mL]",MIC ([2]; Table 2a) [µg/mL]
C[C@H](N)CCCc1cc(Cl)c(F)c(-c2cc3cn(-c4ccc([C@H]5CC(NC6=NCCN6)C[C@H](CCNC6=NCCN6)O5)cc4)c(=O)nc3[nH]2)c1 (stereo partly shown) [Compound 138],≤ 16,≤ 16,–,–
C=C[C@@H](CCNC(=N)N)NCc1ccc(-n2cc3cc(-c4cc([C@H]5CC[C@H](CN)O5)cc(Cl)c4F)[nH]c3nc2=O)cc1 [Compound 139],≤ 16,≤ 16,–,–
C=C[C@@H](CCNC(=N)N)NCc1ccc(-n2cc3cc(-c4cc([C@H]5CC[C@@H](CN)O5)cc(Cl)c4F)[nH]c3nc2=O)cc1 [Compound 140],≤ 16,≤ 16,–,–
C=C[C@@H](CCNC(=N)N)NCc1ccc(-n2cc3cc(-c4cc([C@@H]5CC[C@@H](CN)O5)cc(Cl)c4F)[nH]c3nc2=O)cc1 [Compound 141],≤ 16,≤ 16,–,–
C=C[C@@H](CCNC(=N)N)NCc1ccc(-n2cc3cc(-c4cc([C@@H]5CC[C@H](CN)O5)cc(Cl)c4F)[nH]c3nc2=O)cc1 [Compound 142],≤ 16,≤ 16,–,–
C[C@H](N)CCCc1cc(Cl)c(F)c(-c2cc3cn(-c4ccc([C@H]5CC(N)C[C@H](CCNC6=NCCN6)O5)cc4)c(=O)nc3[nH]2)c1 (stereo partly shown) [Compound 143],≤ 16,≤ 16,–,–
N=C(N)NCC[C@H]1CN(c2ccc(-n3cc4cc(CCNC5CCNCC5)[nH]c4nc3=O)cc2)CCO1 [Compound 144],≤ 16,> 16,–,–
N=C(N)NCC[C@H]1CN(c2ccc(-n3cc4cc(C5CCNC5)[nH]c4nc3=O)cc2)CCO1 (stereo partly shown) [Compound 145],> 16,> 16,–,–
N=C(N)NCC[C@@H]1CN(c2ccc(-n3cc4cc(CCNC5CCNCC5)[nH]c4nc3=O)cc2)CCO1 [Compound 146],> 16,> 16,–,–
N=C(N)NCC[C@@H]1CN(c2ccc(-n3cc4cc(C5CCNC5)[nH]c4nc3=O)cc2)CCO1 (stereo partly shown) [Compound 147],> 16,> 16,–,–
C[C@H](NCCCNC(=N)N)c1ccc(-n2cc3cc(-c4cc([C@@H]5CC[C@@H](CN)O5)cc(Cl)c4F)[nH]c3nc2=O)cc1 [Compound 148],≤ 16,≤ 16,–,–
C[C@H](NCCCNC(=N)N)c1ccc(-n2cc3cc(-c4cc([C@@H]5CC[C@H](CN)O5)cc(Cl)c4F)[nH]c3nc2=O)cc1 [Compound 149],≤ 16,≤ 16,–,–
N=C(CF)NCC[C@@H]1CCC[C@@H](c2ccc(-n3cc4cc(-c5cc(CCC[C@@H](N)CO)cc(Cl)c5F)[nH]c4nc3=O)cc2)N1 [Compound 150],≤ 16,≤ 16,–,–
CC(=N)NCC[C@@H]1CCC[C@@H](c2ccc(-n3cc4cc(-c5cc(CCC[C@@H](N)CO)cc(Cl)c5F)[nH]c4nc3=O)cc2)N1 [Compound 151],≤ 16,≤ 16,–,–
C[C@H](N)CCCC1CC(c2cc3cn(-c4ccc([C@H](C)NCCCNC(=N)N)cc4)c(=O)nc3[nH]2)CCN1 (stereo partly shown) [Compound 152],≤ 16,≤ 16,–,–
C[C@H](N)CCCc1cc(Cl)c(F)c(-c2cc3cn(-c4ccc(CO[C@H](CCNC(=N)N)CN(C)C)cc4)c(=O)nc3[nH]2)c1 [Compound 159],–,–,≤ 16,≤ 16
C=C[C@H](N)CCCc1cc(Cl)c(F)c(-c2cc3cn(-c4ccc(CO[C@H](CCNC(=N)N)CNC(=N)N)cc4)c(=O)nc3[nH]2)c1 [Compound 160],–,–,≤ 16,≤ 16
COC[C@H](N)CCCc1cc(OC(F)(F)F)c(F)c(-c2cc3cn(-c4ccc(CO[C@H](CCNC(C)=N)CNC(C)=N)cc4)c(=O)nc3[nH]2)c1 [Compound 161],–,–,≤ 16,≤ 16

Compound,"MIC ([1]; Table 2, strain ATCC25922) [µg/mL]","MIC ([2]; Table 2, 11540 strain) [µg/mL]","MIC ([1]; ATCC25922, Table 2a) [µg/mL]",MIC ([2]; Table 2a) [µg/mL]
N=C(N)NCC[C@H](CNC(=N)N)OCc1ccc(-n2cc3cc(-c4cc(CCC[C@@H](N)CF)cc(Cl)c4F)[nH]c3nc2=O)cc1 [Compound 162],–,–,≤ 16,≤ 16
N=C(N)NCC[C@H](CNC(=N)N)OCc1ccc(-n2cc3cc(-c4cc(CCC[C@@H](N)CO)cc(Cl)c4F)[nH]c3nc2=O)cc1 [Compound 163],–,–,≤ 16,≤ 16
N=C(N)NCC[C@H](CNC(=N)N)OCc1ccc(-n2cc3cc(-c4cc(CCC[C@@H](N)C5CC5)cc(Cl)c4F)[nH]c3nc2=O)cc1 [Compound 164],–,–,≤ 16,≤ 16
COC[C@H](N)CCCc1cc(OC(F)(F)F)c(F)c(-c2cc3cn(-c4ccc(CO[C@H](CCNC(=N)N)CNC(=N)N)cc4)c(=O)nc3[nH]2)c1 [Compound 165],–,–,≤ 16,≤ 16
CC(C)(N)CCCc1cc(Cl)c(F)c(-c2cc3cn(-c4ccc(CO[C@H](CCNC(=N)N)CNC(=N)N)cc4)c(=O)nc3[nH]2)c1 [Compound 166],–,–,≤ 16,≤ 16
C[C@H](N)CCCc1cc(Cl)c(F)c(-c2cc3cn(-c4ccc(CO[C@H](CCNS(C)(=O)=O)CNC(=N)N)cc4)c(=O)nc3[nH]2)c1 [Compound 167],–,–,≤ 16,≤ 16
CC(=N)NC[C@@H](CCNC(=N)N)OCc1ccc(-n2cc3cc(-c4cc(CCC[C@H](C)N)cc(Cl)c4F)[nH]c3nc2=O)cc1 [Compound 168],–,–,≤ 16,≤ 16
CC(=N)NCC[C@H](CNC(C)=N)OCc1ccc(-n2cc3cc(-c4cc(CCC[C@H](C)N)cc(Cl)c4F)[nH]c3nc2=O)cc1 [Compound 169],–,–,≤ 16,≤ 16
C[C@H](N)CCCc1cc(Cl)c(F)c(-c2cc3cn(-c4ccc(CO[C@H](CCNC(N)=O)CNC(=N)N)cc4)c(=O)nc3[nH]2)c1 [Compound 170],–,–,≤ 16,≤ 16
CC(=N)NCC[C@H](CNC(=N)N)OCc1ccc(-n2cc3cc(-c4cc(CCC[C@H](C)N)cc(Cl)c4F)[nH]c3nc2=O)cc1 [Compound 171],–,–,≤ 16,≤ 16
CC(=N)NCC[C@@H](CNC(=N)N)OCc1ccc(-n2cc3cc(-c4cc(CCC[C@H](C)N)cc(Cl)c4F)[nH]c3nc2=O)cc1 [Compound 172],–,–,≤ 16,≤ 16
CC(=N)NCC[C@@H](CNC(C)=N)OCc1ccc(-n2cc3cc(-c4cc(CCC[C@H](C)N)cc(Cl)c4F)[nH]c3nc2=O)cc1 [Compound 173],–,–,≤ 16,≤ 16
C[C@H](N)CCCc1cc(Cl)c(F)c(-c2cc3cn(-c4ccc(CO[C@@H](CCNC(=N)N)CNC(=N)N)cc4)c(=O)nc3[nH]2)c1 [Compound 174],–,–,≤ 16,≤ 16
CC(=N)NC[C@H](CCNC(=N)N)OCc1ccc(-n2cc3cc(-c4cc(CCC[C@H](C)N)cc(Cl)c4F)[nH]c3nc2=O)cc1 [Compound 175],–,–,≤ 16,≤ 16
CC(=N)NCC[C@H](CN)OCc1ccc(-n2cc3cc(-c4cc(CCC[C@H](C)N)cc(Cl)c4F)[nH]c3nc2=O)cc1 [Compound 176],–,–,≤ 16,≤ 16
C[C@H](N)CCCc1cc(Cl)c(F)c(-c2cc3cn(-c4ccc(CO[C@H](CCN5CCNC5=O)CNC(=N)N)cc4)c(=O)nc3[nH]2)c1 [Compound 177],–,–,≤ 16,≤ 16
CC(=N)NCC[C@@H](CN)OCc1ccc(-n2cc3cc(-c4cc(CCC[C@H](C)N)cc(Cl)c4F)[nH]c3nc2=O)cc1 [Compound 178],–,–,≤ 16,≤ 16

# Reference: patent publication US10947237B2, “Antimicrobial compounds and methods of making and using the same” (BIOVERSYS AG, priority 2015, dated 2021)
